Measured values: patent US20190141999A1, “Methods For Repelling Blood-Sucking And Biting Insects, Ticks And Mites” (The United States of America, as represented by the …, priority 2017, published 2019)
Like-named read-outs stand apart in the source and are kept apart here. Marks after values point to notes of the source that are not given here.

Assays:
stable flies [1] = assay: stable fly laboratory repellent bioassay (blood-feeding); type: in vivo, Stomoxys calcitran; details: for repellency of C8 to C18 acids: FIG. 3
stable flies [2] = details: for knock-down times: 20 mg and 10 mg doses; for knock-down: lowest dose, 2 mg
stable flies [3] = assay: stable fly laboratory repellent bioassay (blood-feeding); type: in vivo, Stomoxys calcitran
Protocol: Comparisons of coconut oil, coconut FFA, and lauric acid against stable fly blood-feeding: Using our modified stable fly laboratory repellent bioassay, we tested coconut oil, coconut FFA and its major compositional compound, lauric acid, for their repellency against stable flies.
In FIG. 11, repellent activity tests were conducted under the laboratory conditions (22° C., 50% RH), 48-hr starved stable flies were used, and a total of at least 5 replicates were accumulated.

horn flies [4] = assay: mortality of horn flies after exposure; type: in vivo
Excerpt: The present invention discloses a blood-sucking insects and biting insects (e.g., stable flies, horn flies, ticks and mites repellent compounds (e.g., lauric acid), identified from coconut oil that is listed as a GRAS (Generally Recognized as Safe, http://www.fda.gov/Food/IngredientsPackagingLabeling/GRAS/) substance. Coconut oil is an edible oil extracted from the kernel or meat of mature coconuts harvested from the coconut palm (https://en.wikipedia.org/wiki/Coconut_oil). It contains a high level of low molecular weight saturated fatty acids (Gervajio, G. C., Fatty acids and derivatives from coconut oil, IN: Bailey's Industrial Oil and Fat Products, Sixth Edition, Six Volume Set, Fereidoon Shahidi, Ed., 2005, John Wiley & Sons, Inc.). […] Both have over 2-weeks longevity deterring stable fly feeding (>90% repellency). […] This compound is listed as one of CFR 21 products that is permitted for direct addition to food for human consumption by FDA (Code of Federal Regulations, Title 21). […]

ticks = assay: tick repellency (species not stated); type: in vivo; details: at 1.25%
Aedes aegypti [5] = assay: minimum effective dosage for biting protection; type: in vivo; details: N = 3-5
bed bugs [6] = assay: bed bug choice among treated tents (harborages); type: in vivo, Cimex letularius; details: control (hexane) vs treated tent
Excerpt: (§1) Bed bugs chose to rest on control tents (hexane-treated) when given a choice of coconut FFA-treated tent (FIG. 9C). This effect lasted on tents treated 14 d earlier.

Aedes aegypti [7] = assay: arm-in-cage assay, biting protection; type: in vivo; details: 1st hour, N = 3
bed bugs [8] = assay: bed bug petri-dish repellency assay; type: in vivo, Cimex letularius
Excerpt: as §1

horn flies [9] = assay: horn fly blood-feeding repellency; type: in vivo, Haematobia irritans
Protocol: Comparisons of coconut FFA, methyl laurate, and lauric acid against horn fly blood-feeding: We also tested coconut FFA and its major compositional compound, lauric acid, for their repellency against horn flies. […] F=41.5 P<0.0001). Dose response curves of repellency against horn flies from coconut FFA and lauric acid: […] F=4.08-4.38 P<0.05). […] A 50% repellency was shown when the dose was reduced to 2 mg. No significant differences in the least repellency concentrations were found among the two repellent candidates, with average 7 mg of both coconut FFA and lauric acid was needed.

With `CCCCCCCCCCC(=O)O` [C11] the “repellency of C8 to C18 acids” value (stable flies [1]; dose not stated) was “strongest repellency”.

In the case of `CCCCCCCCCC(=O)OC` [C10 Me, Methyl decanoate], the “knock-down times” value (stable flies [2]) is reported as “significantly shorter knock-down times”, the mortality (stable flies [2]; in vivo) is reported as roughly 100% and the knock-down time (stable flies [2]; stable flies) is reported as “less than 3 mins”. The “toxic effect” value (stable flies [2]; stable flies) was “most active toxicant”, the “time to mortality after exposure” value (stable flies [2]; stable flies, listed as 10 Me ester) was 10 to 15 min and the “time to mortality after exposure” value (stable flies [2]; stable flies, listed as C10 methyl ester) was less than 10 min. The “repellency against stable flies” value (stable flies [3]; 20 mg dosage) was 100%.

With `CCCCCCCC(=O)O` [C8 acid, Caprylic acid] the “repellency of C8 to C18 acids” value (stable flies [1]; dose not stated) was greater than 80%.

In the case of `CCCCCCCC(=O)OC` [C8 Me, Methyl octanoate], the “knock-down times” value (stable flies [2]) is reported as “significantly shorter knock-down times”, the knock-down (stable flies [2]) is reported as “no knock-down” and the “repellency against stable flies” value (stable flies [3]; 2 mg dose) is reported as “strongest repellency”. The “repellency against stable flies” value (stable flies [3]; 20 mg dosage) was 100%.

For `CCCCCCCC/C=C\CCCCCCCC(=O)OC` [methyl oleate], the “repellency against stable flies” value (stable flies [3]; 20 mg dosage) was “did not showed significant repellency”.

`CCCCCCCCCCCC(=O)OC` [methyl laurate] was tested, and the “repellency against stable flies” value (stable flies [1]; 20 mg dosage, listed as C12 Me) was 100%, the “repellency of methyl esters” value (stable flies [1]; initial bioassays, dose not stated) was roughly 100% and the “time to mortality after exposure” value (horn flies [4]; horn flies) was 15 to 20 min. The mortality (horn flies [4]; horn flies after exposure) was 100%, the knock-down (stable flies [2]) was “no knock-down” and the “mean LD” value (stable flies [2]; stable flies) was 11 to 20 min. The “time to mortality after exposure” value (stable flies [2]; stable flies) was 15 to 20 min, the “toxic effect” value (stable flies [2]; stable flies) was “least toxic compound” and the mortality (stable flies [2]; stable flies after exposure) was 100%. The repellency against ticks (ticks) was 100%.

`CCCCCCCCC(=O)O` [C9] was tested, and the “repellency of C8 to C18 acids” value (stable flies [1]; dose not stated) was “strongest repellency”.

For `CCCCCCCCCCCCC(=O)O` [C13], the “repellency of C8 to C18 acids” value (stable flies [1]; dose not stated) was “strongest repellency”.

For `CCN(CC)C(=O)c1cccc(C)c1` [DEET, N,N-diethyl-m-toluamide, reference compound], the “Minimum effective dosage required for biting protection” value (from here on “Minimum effective dosage required”) (Aedes aegypti [5]) was 0.047 ± 0.000 mg/cm^2, the “choice of control tents over treated tents” value (bed bugs [6]) was “no longer significant at 7 d and 14 d” and the biting protection (Aedes aegypti [7]; 6.25%) was 58-88* %. For the same compound, the biting protection (Aedes aegypti [7]; 12.50%) was 77-97* %, the biting protection (Aedes aegypti [7]; 25% (0.42 mg/cm^2)) was “≈93* %” and the repellency remaining (bed bugs [8]; 7th day after application (FIG. 9B)) was “below 40%”.

`CCCCCCCCCCCC(=O)O` [lauric acid] was tested, and the “Minimum effective dosage required” value (Aedes aegypti [5]) was 0.75 mg/cm^2, the “Minimum effective dosage required” value (Aedes aegypti [5]; listed as Lauric acid) was 0.750 ± 0.000 mg/cm^2 and the “repellency in longevity test” value (stable flies [1]; 2-week longevity test (FIG. 5)) was 94%. For the same compound, the “toxic effect” value (stable flies [2]; stable flies) was “no toxic effect”, the “repellency against stable flies” value (stable flies [3]; 2 mg dose) was “No repellency” and the “LR50 (95% C.I.), least repellency concentration” value (stable flies [3]; in vivo) was 3.69 (3.23-6.53) mg/24 cm^2. The “LR90 (95%, C.I.), least repellency concentration” value (stable flies [3]; in vivo) was 13.61 (9.11-32.59) mg/24 cm^2, the “average amount needed to achieve 90% repellency” value (stable flies [3]; in vivo) was 13 mg and the biting protection (Aedes aegypti [7]; 6.25%) was 20 ± 0%. The biting protection (Aedes aegypti [7]; 12.50%) was 20 ± 0%, the biting protection (Aedes aegypti [7]; 25% (0.42 mg/cm^2)) was 73% and the biting protection (Aedes aegypti [7]; 25% (0.42 mg/cm^2), listed as Lauric acid) was 74 ± 6%. For the same compound, the biting protection (Aedes aegypti [7]; 50%) was 60 ± 11%, the effectiveness duration (bed bugs [8]; at 5%) was “up to 24 hours” and the repellency against bedbugs (bed bugs [8]; at 5%) was 100%. The “repellency against horn flies” value (horn flies [9]; 2 mg dose) was 50% and the “least repellency concentration, average amount needed” value (horn flies [9]; in vivo) was 7 mg.
